Assay [1] has as its target T1, BACE1 (Homo sapiens, UniProt P56817).
T1 construct: purchased Invitrogen
The assay can be described thus: BACE1 enzymatic FRET assay. Particulars: for IC50: pH 4.5, mean ± SEM; for inhibition at 10 µM: pH 4.5, 10 µM compound, read-out: BACE1 percentage of inhibition at 10 µM. The assay is classed as biochemical. Here is the method:
The BACE1 ([…]) assay was carried out according to the manufacturer’s described protocol which is available from Invitrogen[36].
Briefly, BACE1 in vitro assays were carried out using fluorescence resonance energy transfer (FRET). An APP-based peptide substrate (rhodamine-EVNLDAEFK-quencher, Km of 20 μM) carrying the Swedish mutation and containing rhodamine as a fluorescence donor and a quencher acceptor at each end was used. The intact substrate is weakly fluorescent and becomes highly fluorescent upon enzymatic cleavage. The assays were conducted in 50 mM sodium acetate buffer, pH 4.5, at a final enzyme concentration of 1 U/mL. Inhibitor screening was performed at 10 μM. The mixture was incubated for 60 min at 25 °C under dark conditions and then stopped with 2.5 M sodium acetate. Fluorescence was measured with a FLUOstar Optima (BMG Labtechnologies GmbH, Offenburg, Germany) microplate reader at 545 nm excitation and 585 nm emission. The assay kit was validated by the manufacturer.

Assay [2] has as its target T2, AChE from human erythrocytes (Homo sapiens, UniProt P22303).
T2 construct: AChE from human erythrocytes (EC 3.1.1.7); purchased Sigma; host or cells: human erythrocytes (tissue-derived)
The assay can be described thus: In vitro AChE inhibition assay (Ellman). The following applies: for IC50: mean ± SEM, 3 experiments, acetylthiocholine substrate; for inhibition at 10 µM: 10 µM compound, read-out: AChE percentage of inhibition at 10 µM. In kind it is biochemical. Here is the method: (§1) AChE from human erythrocytes (EC 3.1.1.7) (min. 500 units/mg protein in buffered aqueous solution) and BuChE from human serum (EC 3.1.1.8) (3 units/mg protein, lyophilised powder) were purchased from Sigma.
(§2) Compounds were evaluated in 100 mM phosphate buffer pH 8.0 at 30 °C, using acetylthiocholine and butyrylthiocholine (0.4 mM) as substrates, respectively. In both cases, 5,5-dithio-bis(2-nitrobenzoic) acid (DTNB, Ellman’s reagent, 0.2 mM) was used and the values of IC50 were calculated by UV spectroscopy from the absorbance changes at 412 nm. Experiments were performed in triplicate.
(In general: DTNB colorimetry detects thiols as they appear.)

Assay [3] can be described thus: Oxygen radical absorbance capacity assay (ORAC-FL). The following applies: for ORAC (Oxygen Radical Absorbance Capacity): pH 7.4. The procedure:
The ORAC-FL method of Ou et al.[37], partially modified by Dávalos et al.[38], was followed, using a FLUOstar Optima (BMG Labtechnologies GmbH, Offenburg, Germany) with 485 excitation and 520 emission filters. 2,2′-Azobis-(amidinopropane) dihydrochloride (AAPH), (±)-6-hydroxy-2,5,7,8-tetramethylchromane-2-carboxylic acid (trolox) and fluorescein (FL) were purchased from Sigma-Aldrich. The reaction was carried out in 75 mM phosphate buffer (pH 7.4) and the final reaction mixture was 200 µL. […] The mixture was pre-incubated for 30 min at 37 °C and then AAPH solution (25 µL, 240 mM) was added rapidly using a multichannel pipette. The microplate was immediately placed in the reader and the fluorescence was recorded every 90 s. for 90 min. The microplate was automatically shaken prior to each reading. Samples were measured at four different concentrations (10^−1 µM). A blank (FL + AAPH in phosphate buffer) instead of the sample solution and four calibration solutions using trolox (10^−1 µM) was also used in each assay. All of the reaction mixtures were prepared in duplicate and at least three independent assays were performed for each sample. Raw data were exported from the Fluostar optima Software to an Excel sheet for further calculations. Antioxidant curves (fluorescence vs. time) were represented and the area under the curve (AUC) is calculated as: AUC =f1/f0+fi/f0+ … +f34/f0+ (f35/f0) where fo = initial fluorescence reading at 0 min and fi = fluorescence reading at time i. The net AUC is obtained by subtracting the AUC of the blank from that of a sample. The relative Trolox equivalent ORAC value is calculated as: Relative ORAC value =[(AUC sample - AUC blank)/(AUCT rolox - AUC blank)](molarity of trolox/molarity of sample)

Assay [4] concerns the target T3, BuChE from human serum (Homo sapiens, UniProt P06276).
T3 construct: BuChE from human serum (EC 3.1.1.8); purchased Sigma; host or cells: human serum (tissue-derived)
In words: In vitro BuChE inhibition assay (Ellman). The assay is classed as biochemical. The following applies: for IC50: mean ± SEM, 3 experiments, butyrylthiocholine substrate; for BuChE percentage of inhibition at 10 µM / inhibition at 10 µM: 10 µM compound; for inhibition at 10 µM: read-out: BuChE percentage of inhibition at 10 µM. Here is the method: as §1, §2

The target of assay [5] is T4, BuChE (Homo sapiens, UniProt P06276).
T4 construct: BuChE from human serum (EC 3.1.1.8); purchased Sigma; host or cells: human serum (tissue-derived)
T4 sequence (P06276 29-602): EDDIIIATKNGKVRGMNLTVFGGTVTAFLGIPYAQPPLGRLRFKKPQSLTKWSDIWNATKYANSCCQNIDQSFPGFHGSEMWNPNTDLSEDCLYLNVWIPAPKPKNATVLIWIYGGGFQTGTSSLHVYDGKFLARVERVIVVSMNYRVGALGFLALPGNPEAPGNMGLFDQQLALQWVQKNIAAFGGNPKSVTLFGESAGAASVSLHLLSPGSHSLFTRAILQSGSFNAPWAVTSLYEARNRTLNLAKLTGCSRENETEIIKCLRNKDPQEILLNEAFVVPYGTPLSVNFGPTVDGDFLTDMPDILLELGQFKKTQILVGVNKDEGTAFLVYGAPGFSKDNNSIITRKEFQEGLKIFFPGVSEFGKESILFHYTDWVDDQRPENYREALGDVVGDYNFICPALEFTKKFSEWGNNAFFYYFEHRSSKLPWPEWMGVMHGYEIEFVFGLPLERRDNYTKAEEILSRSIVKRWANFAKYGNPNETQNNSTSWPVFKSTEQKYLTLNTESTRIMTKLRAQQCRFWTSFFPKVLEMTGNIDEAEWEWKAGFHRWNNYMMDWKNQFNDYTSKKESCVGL
In words: Kinetic study of BuChE inhibition (Lineweaver-Burk plots). In kind it is biochemical. The procedure: To investigate the mechanism of action of the compounds on AChE or BuChE, a kinetic analysis was performed. The experiments were carried out using combinations of four substrate concentrations and three inhibitor concentrations. Double-reciprocal Lineweaver–Burk plots of the data obtained, in which each point is the mean of three different experiments, were analysed.
Competitive inhibitors have the same y-intercept as uninhibited enzymes (since Vmax is unaffected by competitive inhibitors the inverse of Vmax also doesn’t change), but there are different slopes and x-intercepts. Non-competitive inhibition produces plots with the same x-intercept as uninhibited enzyme (Km is unaffected) but different slopes and y-intercepts. Uncompetitive inhibition causes different intercepts on both the y- and x-axes, but the same slope. Mixed inhibitors cause intersects above or below the x-axes.
The Ki, values were determined by fitting the kinetic data to a competitive, non-competitive, or mixed inhibition model by nonlinear regression analysis using GraphPad Prism[35].

Here are results for 16 compounds from PMC9477487, “Multitarget drugs as potential therapeutic agents for alzheimer’s disease. A new family of 5-substituted indazole derivatives as cholinergic and BACE1 inhibitors” (Journal of Enzyme Inhibition and Medicinal Chemistry, 2022).

Bounds are passed on as bounds.

T3 sequence (P06276 29-602): as above
T2 sequence (P22303 32-617 isoform P22303-2 limits assumed): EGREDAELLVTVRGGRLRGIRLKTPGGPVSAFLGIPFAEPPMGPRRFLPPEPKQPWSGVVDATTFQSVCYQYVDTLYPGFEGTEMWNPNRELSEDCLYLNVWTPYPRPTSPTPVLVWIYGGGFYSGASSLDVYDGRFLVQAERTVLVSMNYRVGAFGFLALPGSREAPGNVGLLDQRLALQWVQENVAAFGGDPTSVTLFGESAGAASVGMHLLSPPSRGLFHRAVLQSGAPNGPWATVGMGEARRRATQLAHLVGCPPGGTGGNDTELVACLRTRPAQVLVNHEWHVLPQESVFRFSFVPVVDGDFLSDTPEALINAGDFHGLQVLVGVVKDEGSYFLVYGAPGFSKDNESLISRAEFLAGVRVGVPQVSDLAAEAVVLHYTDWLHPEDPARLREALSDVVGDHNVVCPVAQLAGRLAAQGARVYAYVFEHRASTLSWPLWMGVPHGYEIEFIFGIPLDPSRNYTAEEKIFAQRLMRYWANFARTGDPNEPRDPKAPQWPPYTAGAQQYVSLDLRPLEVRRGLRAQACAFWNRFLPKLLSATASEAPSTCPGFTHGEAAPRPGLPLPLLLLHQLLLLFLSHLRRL
T1 sequence (P56817 46-501): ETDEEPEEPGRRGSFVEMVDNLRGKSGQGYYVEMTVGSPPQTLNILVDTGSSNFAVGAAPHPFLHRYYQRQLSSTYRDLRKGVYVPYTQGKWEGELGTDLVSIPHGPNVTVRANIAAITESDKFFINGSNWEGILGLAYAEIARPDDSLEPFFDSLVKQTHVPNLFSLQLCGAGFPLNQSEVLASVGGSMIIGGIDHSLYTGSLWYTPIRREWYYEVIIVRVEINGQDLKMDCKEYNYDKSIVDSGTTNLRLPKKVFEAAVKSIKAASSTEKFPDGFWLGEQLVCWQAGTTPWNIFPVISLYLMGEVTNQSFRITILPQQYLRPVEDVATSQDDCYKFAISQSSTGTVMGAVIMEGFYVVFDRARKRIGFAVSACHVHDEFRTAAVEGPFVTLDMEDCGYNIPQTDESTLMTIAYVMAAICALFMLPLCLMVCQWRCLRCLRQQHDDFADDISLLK

For orientation: IC50 means the midpoint of a concentration-inhibition curve. As for `Nc1ccc2c(c1)c(OCc1cccc3ccccc13)nn2Cc1ccccc1` [Compound 32], the IC50 in assay [1], in assay [2] and in assay [4] was over 10 µM each time. Besides, in assay [3], the “ORAC (Oxygen Radical Absorbance Capacity)” value (from here on “ORAC”) is 1.0 ± 0.1 μmol of Trolox equivalents/μmol of tested compound.

What is called inhibition is the relative decrease from the control value, in per cent. Take `O=C(Nc1ccc2c(c1)c(OCc1ccccc1)nn2Cc1ccccc1)c1cccc(Cl)c1Cl` [Compound 7]: the inhibition at 10 µM in assay [1] stood at 60%. The IC50 in assay [2] is 7.6 ± 0.3 µM; in assay [4], over 10 µM. Moreover, the “ORAC” value in assay [3] is listed as 0 μmol of Trolox equivalents/μmol of tested compound.

Turning to `Nc1ccc2c(c1)c(OCc1ccc3ccccc3c1)nn2Cc1ccc(Cl)c(Cl)c1` [Compound 31], the inhibition at 10 µM in assay [1] was 69%. The same compound came in with an IC50 in assay [2] of 6 ± 0.5 µM. Also, the “ORAC” value in assay [3] is reported as 0.63 ± 0.04 μmol of Trolox equivalents/μmol of tested compound. Further, in assay [4], the “BuChE percentage of inhibition at 10 µM” value was “very slight inhibition”, the inhibition at 10 µM stood at 30% and the IC50 was over 10 µM.

Turning to `Nc1ccc2c(c1)c(OCc1ccc3ccccc3c1)nn2Cc1ccc2ccccc2c1` [Compound 28], the 50% inhibitory concentration (IC50) in assay [1] came to 8.9 ± 0.5 µM. For the same compound, the midpoint of inhibition in assay [2], the IC50, lay at 4.1 ± 0.2 µM. Further, the “ORAC” value in assay [3] was 0.3 ± 0.1 μmol of Trolox equivalents/μmol of tested compound. In assay [4], the “BuChE percentage of inhibition at 10 µM” value is on record as “very slight inhibition”, the inhibition at 10 µM turned out to be 24% and the IC50 was over 10 µM.

Turning to `O=C(Nc1ccc2c(c1)c(OCc1cccc(Cl)c1Cl)nn2Cc1cccc2ccccc12)N1CCCC1` [Compound 12], in assay [1], the inhibition at 10 µM stood at 43%. The IC50 in assay [1], in assay [2] and in assay [4] was over 10 µM each time. Also, in assay [3], the “ORAC” value is 0.5 ± 0.1 μmol of Trolox equivalents/μmol of tested compound.

`CN1CCN(C(=O)Nc2ccc3c(c2)c(OCc2ccccc2)nn3Cc2cccc(Cl)c2Cl)CC1` [Compound 11] yielded an IC50 in assay [1] of 2.8 ± 0.5 µM. The IC50 in assay [2] was over 10 µM. Moreover, in assay [3], the “Antioxidant properties in relation to Trolox” value (shortened to “Antioxidant properties”) was “higher than 60%” and the “ORAC” value was 1.1 ± 0.1 μmol of Trolox equivalents/μmol of tested compound. Further, in assay [4], the inhibition at 10 µM is 47% and the IC50 was over 10 µM.

In the case of `Nc1ccc2c(c1)c(OCc1cccc(Cl)c1Cl)nn2Cc1cccc2ccccc12` [Compound 30], the inhibition at 10 µM in assay [1] was found to be 79%; in assay [2], 36%. For the same compound, the IC50 in assay [2] and in assay [4] was over 10 µM each time. Further, the “ORAC” value in assay [3] is given as 0.8 ± 0.1 μmol of Trolox equivalents/μmol of tested compound.

For the compound `Nc1ccc2c(c1)c(OCc1ccccc1)nn2Cc1ccccc1` [Compound 27, 5-amino-1-benzyl-3-(benzyloxy)indazole], in assay [1], the inhibition at 10 µM stood at 2% and the IC50 is over 10 µM. In assay [2], this compound displayed an IC50 of 8.6 ± 0.5 µM. Besides, the “ORAC” value in assay [3] is 0.9 ± 0.1 μmol of Trolox equivalents/μmol of tested compound. In assay [4], the “BuChE percentage of inhibition at 10 µM” value is given as “very slight inhibition”, the inhibition at 10 µM turned out to be 21% and the IC50 was over 10 µM.

In the case of `CN(C(=O)Nc1ccc2c(c1)c(OCc1cccc3ccccc13)nn2Cc1ccc(Cl)cc1)c1ccccc1` [Compound 9], in assay [1], the inhibition at 10 µM turned out to be 29% and the IC50 is over 10 µM. In assay [2], the IC50 was over 10 µM. Moreover, in assay [3], the “Antioxidant properties” value is given as “higher than 60%” and the “ORAC” value is on record as 0.6 ± 0.1 μmol of Trolox equivalents/μmol of tested compound. In assay [4], the IC50 was over 10 µM.

Turning to `COc1cc2c(cc1OC)C(=O)C(CC1CCN(Cc3ccccc3)CC1)C2` (centres unmarked) [donepezil, reference compound], in assay [5], the “BuChE inhibition mode of action (in words)” value is reported as “mixed type”.

For the compound `Nc1ccc2c(c1)c(OCc1ccccc1)nn2Cc1cccc(Cl)c1Cl` [Compound 29], the IC50 in assay [1], in assay [2] and in assay [4] was over 10 µM in each case. The “ORAC” value in assay [3] is on record as 0.7 ± 0.1 μmol of Trolox equivalents/μmol of tested compound.

For the compound `Nc1ccc2c(c1)c(OCc1cccc3ccccc13)nn2Cc1ccc(Cl)cc1` [Compound 33], the results for the IC50 in assay [1], in assay [2] and in assay [4] were 5.8 ± 0.5 µM, over 10 µM and over 10 µM, respectively. In addition, the “ORAC” value in assay [3] is 1.0 ± 0.1 μmol of Trolox equivalents/μmol of tested compound.

With `O=C(Nc1ccc2c(c1)c(OCc1cccc3ccccc13)nn2Cc1ccc(Cl)c(Cl)c1)N(c1ccccc1)c1ccccc1` [Compound 10], the inhibition at 10 µM in assay [1] is 10%; in assay [2] it was 28%. Moreover, the IC50 in assay [1], in assay [2] and in assay [4] was over 10 µM each time. Further, in assay [3], the “ORAC” value is given as 0.2 ± 0.1 μmol of Trolox equivalents/μmol of tested compound.

With `Nc1ccc2c(c1)c(OCc1cccc3ccccc13)nn2Cc1ccc(Cl)c(Cl)c1` [Compound 34], the inhibition at 10 µM in assay [1] amounted to 72%. Half-maximal inhibition in assay [2] (IC50) was put at 3.5 ± 0.6 µM. For the same compound, the “ORAC” value in assay [3] was 0.33 ± 0.05 μmol of Trolox equivalents/μmol of tested compound. Moreover, in assay [4], the “BuChE percentage of inhibition at 10 µM” value is “very slight inhibition”, the inhibition at 10 µM was found to be 32% and the IC50 was over 10 µM.

As to `CCN(CC)C(=O)Nc1ccc2c(c1)c(OCc1cccc3ccccc13)nn2Cc1ccccc1` [Compound 8], in assay [1], it took 9.1 ± 0.5 µM to reach half-maximal inhibition (IC50). Besides, in assay [2], the inhibition at 10 µM was determined as 29% and the IC50 is over 10 µM. Moreover, in assay [3], the “Antioxidant properties” value is reported as “higher than 60%” and the “ORAC” value is recorded as 0.9 ± 0.1 μmol of Trolox equivalents/μmol of tested compound. In assay [4], the half-maximal inhibitory concentration (IC50) was over 10 µM.

In the case of `Clc1cccc(COc2nn(Cc3cccc4ccccc34)c3ccc(NCCCN4CCCCC4)cc23)c1Cl` [Compound 5], the figures for the half-maximal inhibitory concentration (IC50) in assay [1], in assay [2] and in assay [4] were 2.7 ± 0.1 µM, over 10 µM and over 10 µM, respectively. For the same compound, the “ORAC” value in assay [3] is reported as 0.8 ± 0.1 μmol of Trolox equivalents/μmol of tested compound.
